We go through eleven compounds from ChEMBL document CHEMBL1201862, “PubChem BioAssay data set” (2004).

Test systems include 786-0; ACHN; COLO 205; HCT-15; Hs-578T; IGROV-1; M14; MDA-MB-231; MDA-MB-435; MOLT-4; Malme-3M; NCI-H226; NCI/ADR-RES; OVCAR-4; SF-295; SNB-75; UACC-62; NCI-H522; SR; SF-539.
Assay in all cases: NCI tumour cell line growth inhibition, 48 h

“And” between values parts separate entries of the source, which are not always exact repeats. Identical values can stand only once.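 Cells were grown in 96-well plates and exposed to each compound for 48 hours at five concentrations; endpoints were interpolated linearly between bracketing concentrations, or set to the highest concentration if not reached. At the GI50, growth is halved.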 The source made the active and inactive calls. No stated cut-off is given here; in the data, active = GI50 up to about 1.1 µM and inactive = higher.

Regarding `COc1cc(OC)cc(-c2nc(O)c3ccccc3n2)c1`, the GI50 with 786-0 is 25.4 µM (inactive); in the experiment on ACHN, > 100 µM (inactive); in the experiment with COLO 205, > 100 µM (inactive); in the experiment on HCT-15 it was > 100 µM; with Hs-578T, 38.8 µM (inactive); in the experiment with IGROV-1, 93.1 µM (inactive). Besides, the GI50 in the experiment with M14 was > 100 µM (inactive); with MDA-MB-231, 86.1 µM (inactive); with MDA-MB-435, > 100 µM (inactive); in the experiment on MOLT-4, > 100 µM (inactive); in the experiment on Malme-3M, > 100 µM (inactive); in the experiment with NCI-H226, > 100 µM (inactive). Besides, the GI50 is 40.7 µM (inactive) in the experiment with NCI/ADR-RES; > 100 µM (inactive) in the experiment with OVCAR-4; 29 µM (inactive) with SF-295; 29.6 µM (inactive) with SNB-75; > 100 µM (inactive) in the experiment on UACC-62.

Turning to `CC(=O)Oc1cc2c(cc1OC(C)=O)[C@H]1CC[C@]3(C)[C@@H](OC(C)=O)CC[C@H]3[C@@H]1CC2`, the GI50 in the experiment with 786-0 is 4.78 µM (inactive); in the experiment with ACHN, 3.56 µM (inactive); in the experiment on COLO 205 it was 3.43 µM (inactive); with HCT-15 it was 1.48 µM; in the experiment on Hs-578T, 1.87 µM (inactive); in the experiment on IGROV-1, 3.77 µM (inactive). The GI50 with M14 was 6 µM (inactive); in the experiment on MDA-MB-231, 7.41 µM (inactive); in the experiment on NCI-H522, 1.16 µM (inactive); in the experiment on NCI/ADR-RES, 9.53 µM (inactive); in the experiment on OVCAR-4, 5.61 µM (inactive); with SF-295 it was 4.49 µM (inactive). Moreover, the GI50 in the experiment on SNB-75 was 0.162 µM (active); in the experiment on SR, 0.45 µM (active).

For `O=C(/C=C(\S/C=C(/c1ccccc1)N1CCn2c(C(=O)c3ccccc3)c(C(=O)c3ccccc3)c(C(=O)c3ccccc3)c21)C(=O)c1ccccc1)c1ccccc1`, the GI50 in the experiment on 786-0 was > 10 µM (inactive); in the experiment with ACHN, > 10 µM (inactive); in the experiment on COLO 205, > 10 µM (inactive); with HCT-15 it was > 10 µM; with Hs-578T, > 10 µM (inactive); in the experiment with IGROV-1, > 10 µM (inactive). For the same compound, the GI50 in the experiment with M14, in the experiment with MDA-MB-231, in the experiment on MDA-MB-435, in the experiment with MOLT-4, in the experiment on Malme-3M and in the experiment with NCI-H522 was > 10 µM (inactive) each time. For the same compound, the GI50 in the experiment with NCI/ADR-RES, in the experiment on OVCAR-4, with SF-295, with SF-539, in the experiment on SNB-75 and with UACC-62 was > 10 µM (inactive) throughout.

`CCN(CC)CCOC(c1cc(OC)ccc1OC)c1ccc2n1-c1ccccc1OC2` (stereo not drawn): the GI50 was 15.6 µM (inactive) with 786-0; 13.8 µM (inactive) in the experiment with ACHN; 5.42 µM (inactive) in the experiment on COLO 205; 11.5 µM in the experiment on HCT-15; 13.7 µM (inactive) in the experiment on Hs-578T; 7 µM (inactive) with IGROV-1. Moreover, the GI50 is 15.7 µM (inactive) in the experiment with M14; 2.09 µM (inactive) with MDA-MB-231; 10.5 µM (inactive) in the experiment on MDA-MB-435; 18.5 µM (inactive) in the experiment on Malme-3M; 3.98 µM (inactive) in the experiment with NCI-H226; 15.2 µM (inactive) in the experiment with NCI-H522. Moreover, the GI50 is 2.57 µM (inactive) in the experiment with NCI/ADR-RES; 13.9 µM (inactive) in the experiment with OVCAR-4; 10.4 µM (inactive) with SF-295; 2.31 µM (inactive) in the experiment on SNB-75; 2.39 µM (inactive) with UACC-62.

As to `COc1ccccc1/C(=N\OCCC(=O)O)c1cccs1`, the GI50 with 786-0 is > 100 µM (inactive); in the experiment with ACHN it was > 100 µM (inactive); in the experiment on COLO 205, > 100 µM (inactive); with HCT-15, > 100 µM; with Hs-578T, 56.6 µM (inactive); in the experiment with MDA-MB-231, > 100 µM (inactive). Besides, the GI50 in the experiment on MDA-MB-435, in the experiment on MOLT-4, with Malme-3M, with NCI-H226, in the experiment with NCI/ADR-RES and with OVCAR-4 was > 100 µM (inactive) throughout. The GI50 with SF-295, in the experiment on SF-539, in the experiment on SNB-75 and in the experiment with UACC-62 was > 100 µM (inactive) each time.

Regarding `Cc1cccc2c(N)c3cccc(C(=O)NCC[N+](C)(C)[O-])c3nc12`, the GI50 was 2.46 µM (inactive) in the experiment with 786-0; 2.83 µM (inactive) in the experiment on ACHN; 9.57 µM (inactive) in the experiment with COLO 205; 11.3 µM in the experiment with HCT-15; 5.37 µM (inactive) with Hs-578T; 8.39 µM (inactive) in the experiment with IGROV-1. For the same compound, the GI50 in the experiment on M14 was 19.2 µM (inactive); with MDA-MB-231 it was 20.4 µM (inactive); in the experiment with MDA-MB-435, 16.8 µM (inactive); in the experiment on MOLT-4 it was 0.542 µM (active); with Malme-3M it was 12.7 µM (inactive); with NCI-H226, 3.05 µM (inactive). For the same compound, the GI50 was 6.21 µM (inactive) in the experiment with NCI/ADR-RES; 10.3 µM (inactive) in the experiment on OVCAR-4; 6.76 µM (inactive) in the experiment with SF-295; 6.82 µM (inactive) with SF-539; 1.32 µM (inactive) with SNB-75; 8.99 µM (inactive) in the experiment with UACC-62.

For the compound `COC(=O)C(=O)C(C(=O)C(=O)Nc1ccccc1C(=O)OC)c1nc2ccc(C(=O)c3ccccc3)cc2nc1O` (stereo not drawn), the GI50 was > 100 µM (inactive) in the experiment with 786-0; 52.6 µM (inactive) in the experiment with ACHN; 46.8 µM in the experiment on HCT-15; 33.2 µM (inactive) in the experiment with Hs-578T; 62.8 µM (inactive) with IGROV-1; > 100 µM (inactive) with M14. Besides, the GI50 in the experiment with MDA-MB-231 was 76.4 µM (inactive); in the experiment on MDA-MB-435, 38.9 µM (inactive); in the experiment with Malme-3M, 76.9 µM (inactive); with NCI-H226, > 100 µM (inactive); in the experiment on NCI-H522 it was 24.1 µM (inactive); in the experiment with NCI/ADR-RES it was 18.8 µM (inactive). The GI50 in the experiment with OVCAR-4 is 24.9 µM (inactive); with SF-295, 47.2 µM (inactive); in the experiment on SF-539, > 100 µM (inactive); in the experiment on SNB-75, 24.2 µM (inactive); in the experiment with UACC-62 it was > 100 µM (inactive).

`CC(=O)NC1C(CO)O[C@@H]2OC(C)(C)O[C@H]12` (stereo partly drawn): the GI50 in the experiment with 786-0 was > 100 µM (inactive); with ACHN it was > 100 µM (inactive); in the experiment on HCT-15, > 100 µM; with Hs-578T it was > 100 µM (inactive); with IGROV-1 it was > 100 µM (inactive); with M14, > 100 µM (inactive). The GI50 in the experiment on MDA-MB-231, with MDA-MB-435, in the experiment on MOLT-4, in the experiment with Malme-3M, in the experiment with NCI-H522 and with NCI/ADR-RES was > 100 µM (inactive) each time. In addition, the GI50 in the experiment with OVCAR-4, in the experiment on SF-295, with SF-539, in the experiment with SNB-75 and in the experiment on UACC-62 was > 100 µM (inactive) throughout.

Regarding `CC1CNC(c2ccc(COc3ccc(C4=NC(C)CN4)cc3)cc2)=N1` (stereo not drawn), the GI50 was > 100 µM (inactive) in the experiment on 786-0; > 100 µM (inactive) in the experiment with ACHN; > 100 µM (inactive) in the experiment on COLO 205; > 100 µM in the experiment on HCT-15; 22.9 µM (inactive) in the experiment on Hs-578T; > 100 µM (inactive) with IGROV-1. The GI50 was 60.1 µM (inactive) in the experiment with M14; 45.9 µM (inactive) in the experiment with MDA-MB-231; 61 µM (inactive) in the experiment on MDA-MB-435; > 100 µM (inactive) with MOLT-4; 27.6 µM (inactive) in the experiment with Malme-3M; 39 µM (inactive) with NCI-H522. For the same compound, the GI50 was > 100 µM (inactive) in the experiment with NCI/ADR-RES; > 100 µM (inactive) in the experiment on OVCAR-4; 43.4 µM (inactive) with SF-295; 54.8 µM (inactive) in the experiment with SF-539; 13.2 µM (inactive) with SNB-75; 26.2 µM (inactive) with UACC-62.

Turning to `CCOC(=O)c1cc(NC(=O)N(CCC#N)CCN(C(=O)N[C@@H](Cc2ccccc2)C(=O)N[C@@H](CC(C)C)C(=O)NC)c2ccccc2)ccc1OC`, the GI50 in the experiment on 786-0 was 45.3 µM (inactive); with ACHN it was 25.3 µM (inactive); with COLO 205, > 100 µM (inactive); in the experiment on HCT-15 it was 57.4 µM; in the experiment on Hs-578T, 42.2 µM (inactive); with IGROV-1, 41.8 µM (inactive). Also, the GI50 is 99.5 µM (inactive) in the experiment on M14; 74.5 µM (inactive) in the experiment on MDA-MB-231; 30.9 µM (inactive) in the experiment on MDA-MB-435; 23.4 µM (inactive) with MOLT-4; 29.4 µM (inactive) in the experiment with Malme-3M; 35.5 µM (inactive) in the experiment with NCI-H226. For the same compound, the GI50 in the experiment on NCI/ADR-RES is > 100 µM (inactive); in the experiment on OVCAR-4, 44 µM (inactive); with SF-295 it was 34.6 µM (inactive); in the experiment with SF-539, 31.3 µM (inactive); in the experiment with SNB-75, 45 µM (inactive); in the experiment with UACC-62 it was 4.76 µM (inactive).

With `COC(=O)[C@H](Cc1ccccc1)NC(=O)[C@H](Cc1ccccc1)NC(=O)CN1C(=O)[C@@H]2C3C=CC(C3)[C@@H]2C1=O`, the GI50 was 15.5 µM (inactive) and 14.2 µM (inactive) with 786-0; 16.7 µM (inactive) and 16.2 µM (inactive) with ACHN; 17.1 µM (inactive) and 15.8 µM (inactive) in the experiment on COLO 205; 15.6 µM and 17.4 µM in the experiment on HCT-15; 19.1 µM (inactive) and 19.5 µM (inactive) with Hs-578T; 16.5 µM (inactive) and 12.9 µM (inactive) in the experiment on IGROV-1. The GI50 was 19.9 µM (inactive) and 18.6 µM (inactive) in the experiment with M14; 17.3 µM (inactive) and 17 µM (inactive) with MDA-MB-231; 15.3 µM (inactive) and 17.3 µM (inactive) with MDA-MB-435; 3.32 µM (inactive) and 2.26 µM (inactive) in the experiment on MOLT-4; 20.1 µM (inactive) and 19.1 µM (inactive) in the experiment on NCI-H226; 16 µM (inactive) and 14.1 µM (inactive) in the experiment on NCI-H522. For the same compound, the GI50 in the experiment on NCI/ADR-RES is 33 µM (inactive) and 22.2 µM (inactive); in the experiment on OVCAR-4, 16.1 µM (inactive) and 19 µM (inactive); with SF-295 it was 18.5 µM (inactive) and 19.2 µM (inactive); in the experiment with SF-539, 18.7 µM (inactive) and 17.9 µM (inactive); in the experiment on SNB-75, 18.7 µM (inactive) and 18 µM (inactive); with UACC-62, 16.4 µM (inactive) and 16.6 µM (inactive).
